These are literature values, as cited in US8119653B2, “Belactosin derivatives as therapeutic agents/biological probes and their synthesis” (The Texas A&M University System, priority 2006, dated 2012).

For data set [1] the following is noted: in vivo.

On to `CCCCCCCCCCC[C@@H](C[C@@H]1OC(=O)[C@H]1CCCCCC)OC(=O)[C@H](CC(C)C)NC=O` [Orlistat], for which the solubility result is recorded as “poor”. In the data set on tumor cells, the “effect on tumor cells in vitro” value is “cytotoxic and cytostatic”. The bioavailability result in data set [1] is on record as “poor”. Besides, the “tumor growth in vivo” value in the data set on tumor growth was “can inhibit tumor growth”.
